Experimental findings from PubChem BioAssay (NCI) are described below.

Some test systems named below: CAKI-1 renal; UO-31 renal; A498 renal; HCC-2998 colon; IGROV1 ovarian; TK-10 renal; OVCAR-4 ovarian; SN12C renal; MALME-3M melanoma; HCT-116 colon.
Experiment in all cases: NCI tumour cell line growth inhibition, 48 h

Values joined by “and” are separate entries in the source; they are usually repeats but may differ in a detail not shown here. Equal values may be shown once.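 1) Cells in 96-well plates. 2) Compound, 48 h, 5 concentrations. 3) Linear interpolation between surrounding doses. 4) Unreached endpoint = highest concentration. GI50 is the concentration that inhibits growth by half. At the TGI there is no net growth.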

Regarding `Cc1ccc(C2=NO[C@@H]3C(=O)N(c4ccc(Cc5ccc(N6C(=O)[C@H]7C(c8ccc(C)cc8)=NO[C@H]7C6=O)cc5)cc4)C(=O)[C@H]23)cc1`, the TGI in the assay on CAKI-1 renal, with UO-31 renal, with A498 renal, with HCC-2998 colon, in the assay with IGROV1 ovarian and in the assay on TK-10 renal was above 100 µM throughout. Moreover, the TGI in the assay with OVCAR-4 ovarian, in the assay with SN12C renal and with MALME-3M melanoma was above 100 µM each time.
On to `CCOC(=O)C1=C(C)N(NC(=O)c2ccccc2)C2(O)CCCC12C(=O)OCC` (configuration not stated), for which the TGI in the assay with CAKI-1 renal, with UO-31 renal, in the assay on A498 renal, with HCC-2998 colon, in the assay on IGROV1 ovarian and in the assay with HCT-116 colon was above 100 µM throughout. Besides, the TGI with OVCAR-4 ovarian, in the assay with SN12C renal and in the assay with MALME-3M melanoma was above 100 µM each time.
As to `CC(C)=CCC/C(C)=C/CC/C(=C/COP(=O)(OCc1ccc([N+](=O)[O-])o1)N(C)CCCCCl)C(C)(C)C` (configuration not stated), the GI50 in the assay with CAKI-1 renal is 5.78 µM; in the assay with UO-31 renal, above 23.3 µM; with A498 renal, 0.125 µM; in the assay with HCC-2998 colon it was 0.0486 µM; in the assay with IGROV1 ovarian, 6.29 µM; in the assay with TK-10 renal, 1.72 µM. Moreover, the GI50 with HCT-116 colon is 2.04 µM; in the assay on OVCAR-4 ovarian it was 11.8 µM; in the assay with SN12C renal, 2.6 µM. For the same molecule, the TGI in the assay on CAKI-1 renal is 22 µM; in the assay with UO-31 renal, above 44.1 µM; with A498 renal, 2.16 µM; in the assay on HCC-2998 colon, 2.29 µM; with IGROV1 ovarian, 22.5 µM; in the assay on TK-10 renal, 22.2 µM. For the same molecule, the TGI was found to be 11.8 µM with HCT-116 colon, 33.1 µM in the assay with OVCAR-4 ovarian and 7.27 µM in the assay on SN12C renal.
Consider `Cn1cnc2c(NCc3ccccc3)nc(NCCO)nc21`, for which the GI50 was 63.6 µM in the assay on CAKI-1 renal; 93.6 µM with UO-31 renal; 28.8 µM with A498 renal; 115 µM in the assay on HCC-2998 colon; 67.9 µM in the assay on IGROV1 ovarian; 135 µM in the assay on TK-10 renal. The figures for the GI50 with HCT-116 colon and in the assay with OVCAR-4 ovarian were 49.3 µM and 110 µM, respectively. Further, the TGI with CAKI-1 renal was > 90.6 µM and 265 µM; in the assay with UO-31 renal it was > 96.2 µM and 420 µM; in the assay with A498 renal, 83.3 µM and 311 µM; with HCC-2998 colon it was 356 µM; with IGROV1 ovarian, 334 µM; in the assay on TK-10 renal it was above 456 µM. Further, the TGI was > 96.5 µM and 321 µM in the assay with HCT-116 colon; 339 µM with OVCAR-4 ovarian; 241 µM with MALME-3M melanoma.
As to `Cc1cc(C)n(-c2c(O)ccc(O)c2-n2nc(C)cc2C)n1`, the TGI with CAKI-1 renal, in the assay on UO-31 renal, in the assay with A498 renal, with HCC-2998 colon, in the assay on IGROV1 ovarian and with TK-10 renal was above 100 µM each time. Further, the TGI in the assay on OVCAR-4 ovarian, in the assay on SN12C renal and with MALME-3M melanoma was above 100 µM in each case.
In the case of `CC1C2=CC=C(O2)C(C)(C)C2=CC=C(O2)C(C)(C)C2=CC=C(O2)C(C)(C)C2=CC=C1O2`, the TGI with CAKI-1 renal, with A498 renal, with HCC-2998 colon, in the assay on IGROV1 ovarian, in the assay on TK-10 renal and in the assay on HCT-116 colon was above 100 µM each time. Also, the TGI with OVCAR-4 ovarian, with SN12C renal and with MALME-3M melanoma was above 100 µM throughout.
As to `CSC(=S)NNC(=O)c1ccncc1`, the TGI in the assay on CAKI-1 renal is 56.2 µM; in the assay with UO-31 renal it was 31.6 µM; with A498 renal it was above 100 µM; in the assay on HCC-2998 colon it was 38.1 µM; in the assay with IGROV1 ovarian, 32.7 µM; in the assay on TK-10 renal, 75.6 µM. Also, the TGI in the assay with HCT-116 colon is 38.3 µM; in the assay with SN12C renal, 41.4 µM; in the assay on MALME-3M melanoma it was 35.3 µM.
With `CC1OC(O)CC(OC(=O)c2ccccc2)C1OC(=O)c1ccccc1` (configuration not stated), the TGI with CAKI-1 renal is 63.1 µM; in the assay on A498 renal, above 100 µM; in the assay with HCC-2998 colon, above 100 µM; in the assay on IGROV1 ovarian, above 100 µM; with TK-10 renal, above 100 µM; with HCT-116 colon it was 23.3 µM. The results for the TGI in the assay with OVCAR-4 ovarian, in the assay on SN12C renal and in the assay with MALME-3M melanoma were 28.8 µM, 32.3 µM and 30.2 µM, respectively.
Take `Cn1c2cccc3nnc4cccc(c4c32)n1C`: the TGI in the assay on CAKI-1 renal, with UO-31 renal, in the assay on A498 renal, with HCC-2998 colon, in the assay on IGROV1 ovarian and in the assay with HCT-116 colon was above 100 µM throughout. In addition, the TGI in the assay with OVCAR-4 ovarian, with SN12C renal and with MALME-3M melanoma was above 100 µM throughout.
Consider `CCN(CC)c1ccc2c(c1)N=C1N=CC=CN1C2(c1ccc(N(C)C)cc1)c1ccc(N(C)C)cc1`, for which the TGI in the assay on CAKI-1 renal was 25.2 µM; in the assay on UO-31 renal, 22 µM; in the assay on A498 renal, 33.3 µM; in the assay with HCC-2998 colon, 13.2 µM; with IGROV1 ovarian it was 26.9 µM; in the assay on TK-10 renal, 28.6 µM. Further, the figures for the TGI in the assay with HCT-116 colon, with SN12C renal and in the assay on MALME-3M melanoma were 11.8 µM, 19.3 µM and 27.4 µM, respectively.
Take `COC(=O)c1c2c(c(C)[n+]([O-])c1C)C(=O)C(NCc1ccc(F)c(F)c1)=CC2=O`: the GI50 in the assay on CAKI-1 renal was 2.39 µM; in the assay on UO-31 renal it was 1.94 µM; in the assay with A498 renal it was 1.34 µM; with HCC-2998 colon, 2.26 µM; with HCT-116 colon it was 1.65 µM; in the assay with OVCAR-4 ovarian it was 1.03 µM. Also, the GI50 in the assay on SN12C renal was 1.73 µM; in the assay on MALME-3M melanoma, 0.238 µM. Further, the TGI with CAKI-1 renal amounted to 10.5 µM; with UO-31 renal, 6.9 µM; with A498 renal, 5.65 µM; in the assay with HCC-2998 colon, 5.35 µM; in the assay with HCT-116 colon it was 5.71 µM; in the assay with OVCAR-4 ovarian it was 2.22 µM. Further, the TGI in the assay with SN12C renal is 4.32 µM; in the assay on MALME-3M melanoma, 0.874 µM.
For the molecule `CCN(CC)CCOc1cc2c(C(=O)OC)c(C)oc2cc1C(C)=O`, the GI50 in the assay on CAKI-1 renal was 14.2 µM; in the assay with UO-31 renal it was 22.5 µM; in the assay with A498 renal, 53 µM; in the assay on HCC-2998 colon, 15.7 µM; with IGROV1 ovarian, 8.53 µM; in the assay with TK-10 renal, 16.8 µM. For the same molecule, the GI50 in the assay with SN12C renal is 1.64 µM. In addition, the TGI with CAKI-1 renal was 31.2 µM; in the assay with UO-31 renal it was above 100 µM; in the assay with A498 renal, above 100 µM; with HCC-2998 colon, 29.3 µM; in the assay with IGROV1 ovarian, 33 µM; in the assay on TK-10 renal, 31.4 µM. The molecule also yielded a TGI with SN12C renal of 6.54 µM.
